Structures are written as SMILES. Activity calls are given as the source filed them. No rule for the calls is given here.

This data set relates to CCRIS mutagenicity, Ames/micronucleus/aberration tests. Nature of the data set: CCRIS mutagenicity studies.
Setting [1] is: Test System: AMES SALMONELLA TYPHIMURIUM, Strain/Indicator: TA100, Metabolic Activation: NONE, Method: STANDARD PLATE.
Where [2] appears, read: Test System: AMES SALMONELLA TYPHIMURIUM, Strain/Indicator: TA1535, Metabolic Activation: NONE, Method: STANDARD PLATE.
The mark [3] stands for this setting: Test System: AMES SALMONELLA TYPHIMURIUM, Strain/Indicator: TA1538, Metabolic Activation: NONE, Method: STANDARD PLATE.
Setting [4] is: Test System: AMES SALMONELLA TYPHIMURIUM, Strain/Indicator: TA98, Metabolic Activation: NONE, Method: STANDARD PLATE.
The mark [5] stands for this setting: Test System: AMES SALMONELLA TYPHIMURIUM, Strain/Indicator: TA1537, Metabolic Activation: NONE, Method: STANDARD PLATE.

With `O=[N+]([O-])OCC(CO[N+](=O)[O-])O[N+](=O)[O-]`, the mutagenic call is “inactive; negative” (Test System: AMES SALMONELLA TYPHIMURIUM, Strain/Indicator: TA100(NR), Metabolic Activation: NONE, Method: STANDARD PLATE); “inactive; negative” under setting [1]; “inactive; negative” (Test System: AMES SALMONELLA TYPHIMURIUM, Strain/Indicator: TA102, Metabolic Activation: HAMSTER, LIVER, S-9, AROCLOR 1254, Method: STANDARD PLATE); “inactive; negative” (Test System: AMES SALMONELLA TYPHIMURIUM, Strain/Indicator: TA102, Metabolic Activation: NONE, Method: STANDARD PLATE); “active; positive” (Test System: AMES SALMONELLA TYPHIMURIUM, Strain/Indicator: TA1535, Metabolic Activation: HAMSTER, LIVER, S-9, AROCLOR 1254, Method: STANDARD PLATE); “active; positive” under setting [2]. Besides, the mutagenic call was “inactive; negative” under setting [3]; “inactive; negative” (Test System: AMES SALMONELLA TYPHIMURIUM, Strain/Indicator: TA1975, Metabolic Activation: NONE, Method: STANDARD PLATE); “inactive; negative” (Test System: AMES SALMONELLA TYPHIMURIUM, Strain/Indicator: YG1026, Metabolic Activation: NONE, Method: STANDARD PLATE).
Take `O=[N+]([O-])c1cc2c(cc1O)[nH]c1ccccc12`: the mutagenic call is “active; positive” (Test System: AMES SALMONELLA TYPHIMURIUM, Strain/Indicator: TA98(NR), Metabolic Activation: NONE, Method: STANDARD PLATE); “active; positive” (Test System: AMES SALMONELLA TYPHIMURIUM, Strain/Indicator: TA98(NR), Metabolic Activation: RAT, LIVER, S-9, AROCLOR 1254, Method: STANDARD PLATE); “active; positive” under setting [4]; “active; positive” (Test System: AMES SALMONELLA TYPHIMURIUM, Strain/Indicator: TA98, Metabolic Activation: RAT, LIVER, S-9, AROCLOR 1254, Method: STANDARD PLATE).
In the case of `CCCCC[C@@](C)(O)/C=C/[C@H]1[C@H](O)CC(=O)[C@@H]1C/C=C\CCCC(=O)O`, the mutagenic call was “inactive; negative” under setting [4]; “inactive; negative” (Test System: AMES SALMONELLA TYPHIMURIUM, Strain/Indicator: TA98, Metabolic Activation: S-9, Method: STANDARD PLATE); “inactive; negative” under setting [1]; “inactive; negative” (Test System: AMES SALMONELLA TYPHIMURIUM, Strain/Indicator: TA100, Metabolic Activation: S-9, Method: STANDARD PLATE); “inactive; negative” under setting [2]; “inactive; negative” (Test System: AMES SALMONELLA TYPHIMURIUM, Strain/Indicator: TA1535, Metabolic Activation: S-9, Method: STANDARD PLATE). For the same compound, the mutagenic call runs as follows: under setting [5], “inactive; negative”; (Test System: AMES SALMONELLA TYPHIMURIUM, Strain/Indicator: TA1537, Metabolic Activation: S-9, Method: STANDARD PLATE) “inactive; negative”; under setting [3], “inactive; negative”; (Test System: AMES SALMONELLA TYPHIMURIUM, Strain/Indicator: TA1538, Metabolic Activation: S-9, Method: STANDARD PLATE) “inactive; negative”; (Test System: E. COLI, Strain/Indicator: WP2 UVRA, Metabolic Activation: NONE, Method: STANDARD PLATE) “inactive; negative”; (Test System: E. COLI, Strain/Indicator: WP2 UVRA, Metabolic Activation: S-9, Method: STANDARD PLATE) “inactive; negative”.
On to `N#CCC#N`, for which the mutagenic call is, setting by setting: (Test System: AMES SALMONELLA TYPHIMURIUM, Strain/Indicator: TA97, Metabolic Activation: HAMSTER, LIVER, S-9, AROCLOR 1254 (10%), Method: PREINCUBATION) “inactive; negative”; (Test System: AMES SALMONELLA TYPHIMURIUM, Strain/Indicator: TA97, Metabolic Activation: HAMSTER, LIVER, S-9, AROCLOR 1254 (30%), Method: PREINCUBATION) “inactive; negative”; (Test System: AMES SALMONELLA TYPHIMURIUM, Strain/Indicator: TA97, Metabolic Activation: NONE, Method: PREINCUBATION) “inactive; negative”; (Test System: AMES SALMONELLA TYPHIMURIUM, Strain/Indicator: TA97, Metabolic Activation: RAT, LIVER, S-9, AROCLOR 1254 (10%), Method: PREINCUBATION) “inactive; negative”; (Test System: AMES SALMONELLA TYPHIMURIUM, Strain/Indicator: TA97, Metabolic Activation: RAT, LIVER, S-9, AROCLOR 1254 (30%), Method: PREINCUBATION) “inactive; negative”; (Test System: AMES SALMONELLA TYPHIMURIUM, Strain/Indicator: TA98, Metabolic Activation: HAMSTER, LIVER, S-9, AROCLOR 1254 (10%), Method: PREINCUBATION) “inactive; negative”. For the same compound, the mutagenic call reads like this: (Test System: AMES SALMONELLA TYPHIMURIUM, Strain/Indicator: TA98, Metabolic Activation: HAMSTER, LIVER, S-9, AROCLOR 1254 (30%), Method: PREINCUBATION) “inactive; negative”; (Test System: AMES SALMONELLA TYPHIMURIUM, Strain/Indicator: TA98, Metabolic Activation: NONE, Method: PREINCUBATION) “inactive; negative”; (Test System: AMES SALMONELLA TYPHIMURIUM, Strain/Indicator: TA98, Metabolic Activation: RAT, LIVER, S-9, AROCLOR 1254 (10%), Method: PREINCUBATION) “inactive; negative”; (Test System: AMES SALMONELLA TYPHIMURIUM, Strain/Indicator: TA98, Metabolic Activation: RAT, LIVER, S-9, AROCLOR 1254 (30%), Method: PREINCUBATION) “inactive; negative”; (Test System: AMES SALMONELLA TYPHIMURIUM, Strain/Indicator: TA100, Metabolic Activation: HAMSTER, LIVER, S-9, AROCLOR 1254 (10%), Method: PREINCUBATION) “inactive; negative”; (Test System: AMES SALMONELLA TYPHIMURIUM, Strain/Indicator: TA100, Metabolic Activation: HAMSTER, LIVER, S-9, AROCLOR 1254 (30%), Method: PREINCUBATION) “inactive; negative”. Besides, the mutagenic call (Test System: AMES SALMONELLA TYPHIMURIUM, Strain/Indicator: TA100, Metabolic Activation: NONE, Method: PREINCUBATION) was “inactive; negative”; the mutagenic call (Test System: AMES SALMONELLA TYPHIMURIUM, Strain/Indicator: TA100, Metabolic Activation: RAT, LIVER, S-9, AROCLOR 1254 (10 OR 30%), Method: PREINCUBATION) was “inactive; negative”; the mutagenic call (Test System: AMES SALMONELLA TYPHIMURIUM, Strain/Indicator: TA1535, Metabolic Activation: HAMSTER, LIVER, S-9, AROCLOR 1254 (10%), Method: PREINCUBATION) is “inactive; negative”; the mutagenic call (Test System: AMES SALMONELLA TYPHIMURIUM, Strain/Indicator: TA1535, Metabolic Activation: HAMSTER, LIVER, S-9, AROCLOR 1254 (30%), Method: PREINCUBATION) was “inactive; negative”; the mutagenic call (Test System: AMES SALMONELLA TYPHIMURIUM, Strain/Indicator: TA1535, Metabolic Activation: NONE, Method: PREINCUBATION) was “inactive; negative”; the mutagenic call (Test System: AMES SALMONELLA TYPHIMURIUM, Strain/Indicator: TA1535, Metabolic Activation: RAT, LIVER, S-9, AROCLOR 1254 (10 OR 30%), Method: PREINCUBATION) is “inactive; negative”.
For the compound `CCC(=O)Oc1ccc(/C(CC)=C(\CC)c2ccc(OC(=O)CC)cc2)cc1`, the mutagenic call is “inactive; negative” under setting [4]; “inactive; negative” (Test System: AMES SALMONELLA TYPHIMURIUM, Strain/Indicator: TA98, Metabolic Activation: RAT, LIVER, S-9, Method: STANDARD PLATE); “inactive; negative” under setting [1]; “inactive; negative” (Test System: AMES SALMONELLA TYPHIMURIUM, Strain/Indicator: TA100, Metabolic Activation: RAT, LIVER, S-9, Method: STANDARD PLATE); “inactive; negative” under setting [2]; “inactive; negative” (Test System: AMES SALMONELLA TYPHIMURIUM, Strain/Indicator: TA1535, Metabolic Activation: RAT, LIVER, S-9, Method: STANDARD PLATE). Moreover, the mutagenic call under setting [5] is “inactive; negative”; the mutagenic call (Test System: AMES SALMONELLA TYPHIMURIUM, Strain/Indicator: TA1537, Metabolic Activation: RAT, LIVER, S-9, Method: STANDARD PLATE) is “inactive; negative”; the mutagenic call under setting [3] was “inactive; negative”; the mutagenic call (Test System: AMES SALMONELLA TYPHIMURIUM, Strain/Indicator: TA1538, Metabolic Activation: RAT, LIVER, S-9, Method: STANDARD PLATE) was “inactive; negative”.
`NC(=O)CC[C@H](N)C(=O)O`: the mutagenic call is “inactive; negative; glutamine, alone or in combination with vitamin c, reduced effect of d” (End Point: In vitro chromosomal aberrations, Test System: Chinese hamster ovary (CHO) cells, Metabolic Activation: None); “inactive; negative; glutamine, alone or with vitamin c, reduced effect of doxorubicin” (End Point: In vivo chromosomal aberrations, Test System: Bone marrow cells, Species: Rat, Strain/Sex: Wistar/Male and female, Route: Oral); “inactive; negative” (End Point: In vivo micronucleus, Test System: Peripheral blood cells, Species: Mouse, Strain/Sex: Swiss/Male, Route: Oral).

Source of the values: PubChem BioAssay AID1259407 (Chemical Carcinogenesis Research Information System (CCRIS), 2018).
